Source: PubChem BioAssay AID1963428 (Molecular Pharmacology Branch, DTP, NCI, 2024)

Tested on: 171881-019-R-J1-PDC complex spheroid growth, % test/control
Assay: Anticancer human tumor 171881-019-R-J1-PDC patient-derived invasive breast carcinoma cell line growth inhibition [Asc]
Conditions: for IC50: curve of first compound; for viability, T/C: stronger effect = lower value
Protocol: Multicellular complex tumor spheroid response to apoptosis pathway targeting inhibitors Alrizomadlin, Pelcitoclax, and Dasminapant in combination with a variety of drugs and investigational agents in selected tumor cell lines
The MDM2 inhibitor alrizomadlin, the Bcl-2/Bcl-xL inhibitor pelcitoclax, and the IAPs inhibitor dasminapant were evaluated both individually and in combination with standard of care and investigational anticancer small molecules within a complex spheroid model of solid tumors. . Complex spheroids include a stromal component modeled by human endothelial cells (HUVEC) and fibroblasts modeled by human mesenchymal stem cells (MSCs). The concentration ranges selected for each drug and investigational agent were based upon clinically achievable concentrations if the clinical Cmax of the agent was known.
Compounds. The drugs and investigational agents: alrizomadlin (APG-115; NSC831270), pelcitoclax (APG-1252; NSC835773), dasminapant (APG-1387;NSC834197), TAK-243 (NSC785004), copanlisib (NSC809693), olaparib (NSC753686), talazoparib (NSC767125), cobimetinib (NSC 768068), eltanexor (KPT-8602, NSC 794443), abemaciclib (NSC 768073), sotorasib (NSC818433), adagrasib (NSC 831453), MRTX-1133 (NSC 836407), Iadademestat (ORY1001, NSC 806812), and RMC-4630 (NSC839698), were obtained from the NCI Developmental Therapeutics Program Chemical Repository. The FDA-approved anticancer drug set is available from the Developmental Therapeutics Program at https://dtp.cancer.gov/organization/dscb/obtaining/available plates.htm. […] The stock solutions were prepared in dimethyl sulfoxide (DMSO, Sigma-Aldrich, St. Louis, MO, cat. D2650) at 800-fold the tested concentration and stored at -70 degrees C prior to their use. All drugs and investigational agents were tested over a range starting from a high concentration at or near the clinical Cmax and decreasing in half-log increments. If the clinical Cmax for an agent had not been determined, the highest concentration tested was 10 microM.
The patient-derived cancer (PDC) cell lines include five colon adenocarcinomas: 186277-243-T-J2-PDC, 616215-338-R-J1-PDC, 439559-082-T-J2-PDC, 463943-066-T-J2-PDC, and 519858-162-T-J1-PDC; three pancreatic carcinomas: 323965-272-R-J2-PDC, 521955-158-R6-J3-PDC, and 521955-158-R2-J5-PDC; two uterine sarcomas: 327498-152-R-J2-PDC and 993429-296-R-J1-PDC; two rhabdomyosarcomas: 755483-174-R-J1-PDC and 772245-204-R-J1-PDC; two soft tissue sarcomas: 126254-015-R-J1-PDC and 494315-158-R-J1-PDC; two malignant fibrous histiocytomas: 317291-083-R-J1-PDC and 596521-263-R-J1-PDC; two breast carcinomas: 171881-019-R-J1-PDC and 885512-296-R-J2-PDC; and one ovarian carcinoma: 6556581-035-R-J-PDC were obtained from the NCI PDMR, (https://pdmr.cancer.gov). The established cell lines HSSY-2 synovial sarcoma (RRID:CVCL 8719), SYO-1 synovial sarcoma (RRID:CVCL_7146), MPNST malignant peripheral neural sheath tumor were obtained from the Sloan Kettering Institute. The following established cell lines were purchased from the American Type Culture Collection (ATCC, Manassas, VA), Sor the received from the NCI repository:, PANC-1 pancreatic carcinoma (CRL-1469, RRID:CVCL_0480), OVCAR-5 ovarian carcinoma (RRID:CVCL_1628), OVCAR-8 ovarian carcinoma (RRID:CVCL_1629), , MCF-7 breast carcinoma (CRL-12584, RRID:CVCL_0031), MDA-MB-231 breast carcinoma (CRL-12532, RRID:CVCL_0062), NCI-H1876 small cell lung carcinoma (CRL-5902, RRID:CVCL_1503), NCI-H510A small cell lung carcinoma (HTB-184, RRID:CVCL_1565), NCI-H1417 (CRL-5869, RRID:CVCL_1469), and NCI-H196 small cell lung carcinoma (CRL-5823, RRID:CVCL_1509). Dr. Peter Houghton (Greehey Children's Cancer Research Institute, University of Texas Health Science Center, San Antonio, TX) provided Rh-18 rhabdomyosarcoma (RRID:CVCL_1659). Pooled donor human umbilical vein endothelial cells (HUVEC, Lonza, cat. CC-2519) and human mesenchymal stem cells (hMSC, Lonza, cat. PT-2501) were purchased from Lonza (Walkersville, MD).
Cell Culture. […]

[1] = second compound 0.03 µM, first compound 0.00316 µM
[2] = second compound 0.03 µM, first compound 0.01 µM
[3] = second compound 0.03 µM, first compound 0.0316 µM
[4] = second compound 0.03 µM, first compound 0.1 µM
[5] = second compound 0.0949 µM, first compound 0.00316 µM
[6] = second compound 0.0949 µM, first compound 0.01 µM
[7] = second compound 0.0949 µM, first compound 0.0316 µM
[8] = second compound 0.0949 µM, first compound 0.1 µM
[9] = second compound 0.3 µM, first compound 0.00316 µM
[10] = second compound 0.3 µM, first compound 0.01 µM
[11] = second compound 0.3 µM, first compound 0.0316 µM
[12] = second compound 0.3 µM, first compound 0.1 µM
[13] = second compound 0.949 µM, first compound 0.00316 µM
[14] = second compound 0.949 µM, first compound 0.01 µM
[15] = second compound 0.949 µM, first compound 0.0316 µM
[16] = second compound 0.949 µM, first compound 0.1 µM
[17] = second compound 3 µM, first compound 0.00316 µM
[18] = second compound 3 µM, first compound 0.01 µM
[19] = second compound 3 µM, first compound 0.0316 µM
[20] = second compound 3 µM, first compound 0.1 µM
[21] = second compound 0.03 µM, first compound 0.316 µM
[22] = second compound 0.03 µM, first compound 1 µM
[23] = second compound 0.0949 µM, first compound 0.316 µM
[24] = second compound 0.0949 µM, first compound 1 µM
[25] = second compound 0.3 µM, first compound 0.316 µM
[26] = second compound 0.3 µM, first compound 1 µM
[27] = second compound 0.949 µM, first compound 0.316 µM
[28] = second compound 0.949 µM, first compound 1 µM
[29] = second compound 3 µM, first compound 0.316 µM
[30] = second compound 3 µM, first compound 1 µM
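Wherever viability, T/C is given: spheroids exposed to compounds for 7 days.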

Row | IC50 (second compound 0.03 µM) | IC50 (second compound 0.0949 µM) | IC50 (second compound 0.3 µM) | IC50 (second compound 0.949 µM) | IC50 (second compound 3 µM) | SMILES | viability, T/C [1] | viability, T/C [2] | viability, T/C [3] | viability, T/C [4] | viability, T/C [5] | viability, T/C [6] | viability, T/C [7] | viability, T/C [8] | viability, T/C [9] | viability, T/C [11] | viability, T/C [12] | viability, T/C [15] | viability, T/C [16] | viability, T/C [19] | viability, T/C [20] | further results
1 | > 100 nM | > 100 nM | > 100 nM | > 100 nM | > 100 nM | Cn1ncnc1[C@H]1c2n[nH]c(=O)c3cc(F)cc(c23)N[C@@H]1c1ccc(F)cc1 + CCN1C(C(=O)NC23CCC(C(=O)O)(CC2)CC3)C(c2cccc(Cl)c2F)C2(C(=O)Nc3cc(Cl)ccc32)C12CCCCC2 | 107% | 103% | 105% | 96.8% | 95.8% | 111% | 104% | 114% | 101% | 109% | 109% | 115% | 120% | 110% | 114% | viability, T/C (second compound 0.03 µM, first compound 0.000316 µM): 93.2%; viability, T/C (second compound 0.03 µM, first compound 0.001 µM): 110%; viability, T/C (second compound 0.0949 µM, first compound 0.000316 µM): 102%; viability, T/C (second compound 0.0949 µM, first compound 0.001 µM): 95.5%; viability, T/C (second compound 0.3 µM, first compound 0.000316 µM): 99.5%; viability, T/C (second compound 0.3 µM, first compound 0.001 µM): 126%; viability, T/C [10]: 104%; viability, T/C (second compound 0.949 µM, first compound 0.000316 µM): 115%; viability, T/C (second compound 0.949 µM, first compound 0.001 µM): 115%; viability, T/C [13]: 120%; viability, T/C [14]: 108%; viability, T/C (second compound 3 µM, first compound 0.000316 µM): 119%; viability, T/C (second compound 3 µM, first compound 0.001 µM): 111%; viability, T/C [17]: 115%; viability, T/C [18]: 110%
2 | > 10000 nM | > 10000 nM | > 10000 nM | > 10000 nM | > 10000 nM | O=C(c1cc(Cc2n[nH]c(=O)c3ccccc23)ccc1F)N1CCN(C(=O)C2CC2)CC1 + CCN1C(C(=O)NC23CCC(C(=O)O)(CC2)CC3)C(c2cccc(Cl)c2F)C2(C(=O)Nc3cc(Cl)ccc32)C12CCCCC2 |  |  | 123% | 101% |  |  | 113% | 92.5% |  | 102% | 116% | 110% | 103% | 108% | 121% | viability, T/C [21]: 102%; viability, T/C [22]: 105%; viability, T/C (second compound 0.03 µM, first compound 3.16 µM): 94.5%; viability, T/C (second compound 0.03 µM, first compound 10 µM): 103%; viability, T/C [23]: 115%; viability, T/C [24]: 97.5%; viability, T/C (second compound 0.0949 µM, first compound 3.16 µM): 110%; viability, T/C (second compound 0.0949 µM, first compound 10 µM): 113%; viability, T/C [25]: 117%; viability, T/C [26]: 95.1%; viability, T/C (second compound 0.3 µM, first compound 3.16 µM): 114%; viability, T/C (second compound 0.3 µM, first compound 10 µM): 107%; viability, T/C [27]: 105%; viability, T/C [28]: 102%; viability, T/C (second compound 0.949 µM, first compound 3.16 µM): 103%; viability, T/C (second compound 0.949 µM, first compound 10 µM): 108%; viability, T/C [29]: 101%; viability, T/C [30]: 94.9%; viability, T/C (second compound 3 µM, first compound 3.16 µM): 113%; viability, T/C (second compound 3 µM, first compound 10 µM): 106%
3 | 511 nM | 660 nM | 581 nM | 455 nM | 286 nM | O=C(c1ccc(F)c(F)c1Nc1ccc(I)cc1F)N1CC(O)([C@@H]2CCCCN2)C1 + CCN1C(C(=O)NC23CCC(C(=O)O)(CC2)CC3)C(c2cccc(Cl)c2F)C2(C(=O)Nc3cc(Cl)ccc32)C12CCCCC2 | 102% | 100% | 113% | 153% | 91.6% | 91.1% | 151% | 151% | 87.6% | 132% | 144% | 157% | 127% | 174% | 111% | viability, T/C [21]: 60.5%; viability, T/C [22]: 35.2%; viability, T/C [23]: 69.5%; viability, T/C [24]: 39%; viability, T/C [10]: 108%; viability, T/C [25]: 61.3%; viability, T/C [26]: 39.9%; viability, T/C [13]: 96.2%; viability, T/C [14]: 111%; viability, T/C [27]: 56%; viability, T/C [28]: 37%; viability, T/C [17]: 112%; viability, T/C [18]: 128%; viability, T/C [29]: 48.2%; viability, T/C [30]: 40.1%
